In patent US20250161287A1, “METHODS, COMPOSITIONS, AND COMBINATIONS FOR PREVENTING OR TREATING CANCER RECURRENCE” (VUJA DE SCIENCES, INC., priority 2022, published 2025):

Legend:
JAK1 = JAK1 (Homo sapiens, UniProt P23458); details: cited from earlier work
K7M2 OS cell line [1] = test: in vitro 3D BME assay with K7M2 OS cell line; assay type: cell-based, mouse; details: K7M2, Day 6 MTS, at or below 1 μM
Text: (§1) 3D basement membrane extract (BME) assay was developed at the NCI Barkan (D. Barkan et al. 2008; Dalit Barkan and Green 2011; Hen and Barkan 2020). BME is purified from Engelbreth-Holm-Swarm (EHS) tumor, primarily made up of laminin, collagen IV, entactin, and heparin sulfate proteoglycans (Cultrex Reduced Growth Factor Basement Membrane Extract, PathClear n.d.), which allows it to more accurately reflect the 3D extracellular environment in the body.
(§2) Initially >150 selected therapeutic agents were tested on BME based on the likelihood for either a positive effect or a […] negative effect (as negative controls). […] These therapeutic agents were also tested in dose response (as broad as 1 pM-100 μM) for 2D cytotoxicity (MTT) and the IC50 was calculated. Where required, the hits from the initial screen were also further characterized at additional doses <100 nM in order to further determine the relative selectivity compared to the 2D IC50.
(§3) The influence of drug exposure on the metastatic phenotype was assessed in an in vitro assay of ME and escape from dormancy using a 3D BME assay as previously reported, which was adapted for use with OS cells.
(§4) Cultrex® PathClear, Reduced Growth Factor Basement Membrane Extract (BME—Bio-Techne, Minneapolis, MN) was added ([…]) to a 96-well plate and allowed to gel by incubating at 37° C. for ≥30 min. Cells were harvested, washed with DMEM (no glucose, no FBS, Gibco, Grand Island, NY) and centrifuged at 1500 g×5 mins. The media was aspirated and the remaining cell pellet flicked for about 10 s to ensure disaggregation.
(§5) Cells were diluted in assay media containing 2% BME, resuspended vigorously and 150 μL of the cell suspension was added on top of the gelled 3D BME layer. […] Cell numbers were determined in control vehicle (cells in media+0.1% DMSO), or treated wells and were measured on the indicated days by addition of 20 μL/well of MTS reagent (Cell Titer 96 Aqueous One, Promega, Madison, WI), followed by incubation at 37° C. for 2 h and absorbance measurements at 490 nm via plate reader (Molecular Devices, San Jose CA).
(§6) All conditions were conducted in quadruplicate and each experiment was carried out at least 3 separate times. All comparisons were made between treatment and vehicle control at concordant time points. Statistical analyses and non-linear regressions were derived using GraphPad Prism statistical software.

K7M2 OS cell line [2] = test: 2D growth / cytotoxicity by MTT, K7M2; assay type: cell-based, mouse
Procedure: The number of viable cells present in 2D culture was determined by MTT as previously reported. Briefly, cells were plated in 96-well plates at 2,000 cells/well and incubated at 37° C. for 24 h. […] After 72 h, MTT reagent (20 L/well of a 5 mg/mL stock solution in sterile water; Sigma, St. Louis, MO) was added to each well and the plate was incubated at 37° C. for 2 h. DMSO ([…]) was then added to each well to solubilize the formazan crystals.
(§7) The resulting absorbance was measured at 490 nm via plate reader (Molecular Devices, San Jose, CA). DMSO (0.1%) was used as vehicle control, while 20 μM rapamycin was used as a positive cell-kill control. The experimental conditions were conducted in triplicate and each experiment was repeated three times. Regression lines and IC50's were calculated using a four-parameter variable slope nonlinear fit in GraphPad Prism.

MG63.3 OS cell line [3] = test: 2D growth / cytotoxicity by MTT, MG63.3; details: MG63.3, MTT, exposures up to 1 μM / assessed exposures
Procedure: The number of viable cells present in 2D culture was determined by MTT as previously reported. Briefly, cells were plated in 96-well plates at 2,000 cells/well and incubated at 37° C. for 24 h. After 24 h, the media was replaced with fresh media containing drugs at the desired concentrations (10 pM-10 μM) and incubated at 37° C. for 72 h. After 72 h, MTT reagent (20 L/well of a 5 mg/mL stock solution in sterile water; Sigma, St. Louis, MO) was added to each well and the plate was incubated at 37° C. for 2 h. DMSO ([…]) was then added to each well to solubilize the formazan crystals.
as §7

MG63.3 OS cell line [4] = test: in vitro 3D BME assay with MG63.3 OS cell line; assay type: cell-based, human; details: MG63.3, Day 6 MTS, at or below 1 μM
Text: as §1, §2, §3, §4, §5, §6

Sequence of JAK1 (P23458 whole entry, species assumed): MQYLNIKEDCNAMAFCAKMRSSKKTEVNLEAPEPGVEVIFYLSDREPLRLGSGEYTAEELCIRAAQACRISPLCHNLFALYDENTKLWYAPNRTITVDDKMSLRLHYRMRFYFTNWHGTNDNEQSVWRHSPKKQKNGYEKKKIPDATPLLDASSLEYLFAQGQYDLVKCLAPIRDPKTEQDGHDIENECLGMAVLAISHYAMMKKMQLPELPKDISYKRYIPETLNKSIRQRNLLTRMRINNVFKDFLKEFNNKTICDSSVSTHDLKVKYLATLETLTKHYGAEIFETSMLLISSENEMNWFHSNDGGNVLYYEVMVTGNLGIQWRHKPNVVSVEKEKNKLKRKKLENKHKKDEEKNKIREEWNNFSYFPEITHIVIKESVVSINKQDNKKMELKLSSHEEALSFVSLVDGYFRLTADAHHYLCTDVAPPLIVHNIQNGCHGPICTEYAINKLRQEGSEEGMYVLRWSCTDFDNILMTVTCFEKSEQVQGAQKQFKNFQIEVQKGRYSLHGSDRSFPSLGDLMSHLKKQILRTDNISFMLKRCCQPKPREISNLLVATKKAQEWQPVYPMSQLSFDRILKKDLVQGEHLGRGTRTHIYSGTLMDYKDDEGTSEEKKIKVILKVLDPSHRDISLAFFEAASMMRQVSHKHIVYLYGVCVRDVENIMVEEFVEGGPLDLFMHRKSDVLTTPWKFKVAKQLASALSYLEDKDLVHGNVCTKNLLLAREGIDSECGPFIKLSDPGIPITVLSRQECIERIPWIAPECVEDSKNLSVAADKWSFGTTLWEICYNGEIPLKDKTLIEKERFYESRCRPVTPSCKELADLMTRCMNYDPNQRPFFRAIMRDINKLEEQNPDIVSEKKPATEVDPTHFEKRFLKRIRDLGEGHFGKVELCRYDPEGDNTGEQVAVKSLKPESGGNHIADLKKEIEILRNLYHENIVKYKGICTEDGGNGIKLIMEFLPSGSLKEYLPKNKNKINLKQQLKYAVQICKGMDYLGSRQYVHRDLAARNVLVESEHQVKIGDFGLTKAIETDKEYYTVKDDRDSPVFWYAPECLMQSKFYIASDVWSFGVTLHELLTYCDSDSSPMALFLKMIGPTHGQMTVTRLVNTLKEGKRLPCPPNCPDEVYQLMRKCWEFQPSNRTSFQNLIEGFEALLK

SMILES: CNS(=O)(=O)C[C@H]1CC[C@H](N(C)c2ncnc3[nH]ccc23)CC1 [oclacitinib]
- inhibitory action against JAK1 relative to JAK2 (JAK1): 1.8 times
- inhibitory action against JAK1 relative to JAK3 (JAK1): 9.9 times
- effect on metastatic phenotype / 3D growth in 3D BME (words) (K7M2 OS cell line [1]): statistically significant but very minimal inhibition
- effect on metastatic phenotype / 3D growth in 3D BME (words) (K7M2 OS cell line [1]; listed as Oclacitinib): statistically significant but very small level of inhibition
- non-cytotoxic drug exposures in 2D (K7M2 OS cell line [2]; K7M2, MTT 72 h, 10 pM-100 μM): below 1 μM
- effect on cell number in 2D monolayer (K7M2 OS cell line [2]; K7M2, MTT, exposures up to 1 μM): minimal inhibition of OS cell number
- effect on cell number in 2D monolayer (MG63.3 OS cell line [3]): minimal inhibition of OS cell number
- effect on metastatic phenotype / 3D growth in 3D BME (words) (MG63.3 OS cell line [4]): did not inhibit MG63.3 cells at any dose
- effect on metastatic phenotype / 3D growth in 3D BME (words) (MG63.3 OS cell line [4]; listed as Oclacitinib): no significant effect
